Results published in paper PMC3901259, “Characterisation of the Metabolites of 1,8-Cineole Transferred into Human Milk: Concentrations and Ratio of Enantiomers” (Metabolites, 2013).

Legend:
[1] = Determination of the ratios of enantiomers of chiral metabolites in human milk on chiral GC capillaries; type: in vivo
In short: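 Milk extracts analysed by GC-MS on cyclodextrin chiral capillaries: Rt-bDEXsm for 2,3-dehydro-, α2,3-epoxy-, 2-oxo-, 3-oxo- and 9-hydroxy-1,8-cineole, Rt-yDEXsa for α2-, α3- and β2-hydroxy-1,8-cineole. Enantiomer ratio = each enantiomer's peak area over summed pair area ×100; absolute enantiomer concentrations from known metabolite concentrations.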

[2] = design: method as in PMID 20425757; conditions: one volunteer, sage tea, overall intake 1.02 mg 1,8-cineole; cited from earlier work

For CC1(C)OC2(C)CCC1CC2O (stereo not drawn) [a2-hydroxy-1,8-cineole, α2-hydroxy-1,8-cineole], the “Enantiomeric ratio in human milk” value [1] was “nearly enantiomerically pure”, the “Percentage E1 in single sample (outlier)” value ([1]; human milk sample B-2a, excluded from Table 3) was 40.5% and the “Percentage E1, range as described for boxplot” value ([1]; human milk samples, Figure 5) was “under 10%”. The Concentration in plasma [2] was 14.62 ng/mL.
